Test results reported in paper PMC5402304, “Oxoaporphine Metal Complexes (Co^II, Ni^II, Zn^II) with High Antitumor Activity by Inducing Mitochondria-Mediated Apoptosis and S-phase Arrest in HepG2” (Scientific Reports, 2017).

Experiments:
[1] = Body weight of mice in the HepG2 xenograft model; format: in vivo, BALB/c nude mice; settings: 3.0 and 6.0 mg/kg ip daily, versus solvent control group
Procedure: To further evaluate the in vivo antitumor efficacy of these complexes, 3 was selected to inhibit tumor growth in a HepG2 xenografts model. The mice were randomized into control group, 3-treated groups and positive control group (n = 6). Once the tumor had grown to an average volume of about 100 mm^3, two group of nude mice were injected intraperitoneally (ip) of 3 at a high dose (6.0 mg/kg) and a low (3.0 mg/kg) dose daily for 20 days, respectively. Cisplatin was used as positive control injected at 2.0 mg/kg every two days, while control group received solvents only.
BALB/c nude mice (male, 17–20 g, 5–6 weeks old) were supplied by Guangxi Medical University Laboratory Animal Centre (Guangxi, China, approval no. SCXK 2014–0002 and SYXK 2014–0003). All of the experimental procedures were carried out according to the NIH Guidelines for the Care and Use of Laboratory Animals. Animal experiments were approved by the Animal Care and Use Committee of Guangxi Medical University. Animal were housed at IVC system (individual ventilated caging) with conditions of constant photoperiod (12 h light/12 h dark at 25−28 °C and 45−65% humidity). The xenograft tumor model was established in the same way as we reported before. […]
The tumor volumes and body weight were measured every 3 days, and tumor size was calculated as volume = (w^2l)/2, where w is the width and l is the length in mm of tumor[70]. […]

cleaved PARP = experiment: Western blot of cleaved PARP in HepG2 cells; format: cell-based, human; settings: 24 h
Procedure: During the caspases-activated apoptotic cascades, mitochondrial apoptotic genes Apaf-1, PARP play an important role. The expressions of Apaf-1, pro-PARP and cleaved PARP in HepG2 cells treated with 3 were carried out by Western blotting. […] The expression of Apaf-1 protein was further confirmed by RT-PCR (Fig. 13C) that the up-regulation of Apaf-1 was also observed. PARP was considered to be an important indicator of cell apoptosis, and the cleaved PARP could cause cellular inactivation and prevent DNA repair.
After incubated with 1–3 (1.0 μM) for 24 h, HepG2 cells were harvested and lysed in 150 μL of lysed buffer (149 μL RIPA and 1 μL PMSF), and then placed on ice for 15 min. The total proteins were extracted by centrifuging the cell sample at 10000 rpm at 4 °C for 10 min. Then about 50 μg of purified proteins were mixed with equal volume of electrophoresis sample buffer, and the mixture was boiled for 10 min. Meanwhile the equal protein content from the control cells was prepared in the same way. The cell sample (10 μL) was loaded onto 10% SDS-PAGE gels and then transferred onto a microporous polyvinylidene difluoride (PVDF) membrane. The membrane was blocked with 5% BSA in TBST buffer for more than 2 h. […] The immunoreactive signals were detected using an enhanced chemo-luminance kit (Pierce ECL Western Blotting Substrate) following the procedures given in the user manual.

For [Zn(OD)2(H2O)2] (ClO4)2 [Complex 3], which “in vivo toxic effect (loss in body weight)” value [1] is on record?
The value was “no significant loss in body weight”.

What about the “increment of cleaved PARP” value (cleaved PARP) of the same substance?
The value was “approximately 70 fold”.
